Experimental data reported in PMC11472310, “Distinctive Immune Signatures Driven by Structural Alterations in Desmuramylpeptide NOD2 Agonists” (Journal of Medicinal Chemistry, 2024).
In brackets after ≈: the same amount, converted by molar mass. Like-named read-outs stand apart in the source and are kept apart here.

Columns and labels:
[1] = target: T1, hNOD2 (Homo sapiens, UniProt Q9HC29); test: HEK-Blue NOD2 cell line reporter assay (NF-κB-inducible SEAP); type: cell-based; conditions: for EC50: HEK-Blue NOD2 cells, 18 h
T1 construct: host or cells: HEK-Blue NOD2 cells (HEK293)
T1 sequence (Q9HC29 whole entry): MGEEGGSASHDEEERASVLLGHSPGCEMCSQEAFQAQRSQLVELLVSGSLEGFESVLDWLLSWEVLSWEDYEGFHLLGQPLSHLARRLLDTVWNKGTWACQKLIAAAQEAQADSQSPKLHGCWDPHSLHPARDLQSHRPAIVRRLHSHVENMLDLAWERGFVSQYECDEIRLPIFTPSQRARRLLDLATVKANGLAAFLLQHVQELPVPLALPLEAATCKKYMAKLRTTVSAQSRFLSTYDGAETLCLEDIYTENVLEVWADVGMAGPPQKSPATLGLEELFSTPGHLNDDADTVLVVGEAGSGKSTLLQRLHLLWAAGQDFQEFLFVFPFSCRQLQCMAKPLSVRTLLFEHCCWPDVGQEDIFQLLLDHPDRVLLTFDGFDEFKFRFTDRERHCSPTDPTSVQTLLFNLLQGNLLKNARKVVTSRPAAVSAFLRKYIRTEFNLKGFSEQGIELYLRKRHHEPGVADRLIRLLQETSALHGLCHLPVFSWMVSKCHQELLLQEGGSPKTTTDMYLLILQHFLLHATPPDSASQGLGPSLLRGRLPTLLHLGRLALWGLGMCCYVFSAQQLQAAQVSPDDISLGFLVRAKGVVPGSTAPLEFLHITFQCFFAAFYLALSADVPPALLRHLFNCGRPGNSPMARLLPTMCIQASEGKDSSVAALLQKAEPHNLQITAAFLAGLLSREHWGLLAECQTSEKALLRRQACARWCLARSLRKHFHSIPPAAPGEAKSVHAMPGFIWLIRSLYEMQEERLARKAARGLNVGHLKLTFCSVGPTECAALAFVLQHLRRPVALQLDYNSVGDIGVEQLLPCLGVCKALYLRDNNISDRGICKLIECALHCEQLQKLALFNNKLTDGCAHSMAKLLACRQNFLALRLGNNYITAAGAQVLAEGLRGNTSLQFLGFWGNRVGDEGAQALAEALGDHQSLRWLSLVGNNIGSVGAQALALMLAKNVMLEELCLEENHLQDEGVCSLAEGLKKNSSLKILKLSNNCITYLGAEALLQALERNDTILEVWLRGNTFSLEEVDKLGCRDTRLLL
Outline: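 HEK293 cells cotransfected with hNOD2 and an NF-κB-inducible SEAP reporter, exposed to compounds dose-dependently for 18 h at 37 °C, 5% CO2. SEAP read by absorbance at 630 nm; EC50 values from dose-response, duplicate wells, at least two independent biological replicates.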

[2] = system: CD8+ T cells cocultured with BMDCs; test: BMDC antigen cross-presentation to ovalbumin-specific CD8+ T cells (OT I); type: cell-based, C57BL/6 mouse; conditions: BMDCs pretreated 10 μM + ovalbumin 50 μg/mL 18 h, coculture 72 h; OVA-treated cells 23.3%
Description: (§1) For this study, we narrowed down the selection of suitable desmuramylpeptides even further. In order to assess the adjuvant potential of selected desmuramylpeptides with regard to their effect on DC-mediated activation of CD4^+ and CD8^+ T cells, we conducted an ex vivo antigen-presentation assay utilizing C57BL/6 mouse bone marrow-derived DCs (BMDCs). Upon stimulation with desmuramylpeptides at 10 μM, in conjunction with ovalbumin soluble protein (50 μg/mL), BMDCs were cocultured with carboxyfluorescein succinimidyl ester (CFSE)-labeled naïve ovalbumin-specific CD4^+ or CD8^+ T cells, which were isolated from splenocytes of OT II and OT I transgenic mice, respectively. […] Additionally, we investigated how the priming of T cells elicited by the tested compounds impacted the cytokine profiles secreted in BMDC/T-cell cocultures.
CD4^+ and CD8^+ T cells were isolated from splenocytes of OT II and OT I transgenic mice using CD4^+ and CD8^+ T cell isolation kits (Miltenyi Biotec, Germany) following the manufacturer’s instructions. The purified T cells were labeled with CFSE (Invitrogen, Carlsbad, CA, USA) and subsequently washed. Next, 5 × 10^4 T cells were combined with 1 × 10^4 BMDCs/well (pretreated with desmuramylpeptides at 10 μM and 50 μg/mL ovalbumin [Invivogen, San Diego, CA, USA] for 18 h and then washed). Following a 72-h incubation period at 37 °C with 5% CO2, supernatants were harvested and stored at −80 °C for cytokine analysis. The cells were then stained with Fixable viability dye eFluor 780 (eBioscience, Thermo Fisher Scientific, MA, USA), anti-Thy1.2-PE-Cy7 antibodies (Biolegend, San Diego, CA, USA), anti-CD8-eFluor450 antibodies (eBioscience), anti-CD4-eFluor450 antibodies (eBioscience), and anti-CD25-APC antibodies (Biolegend) before analysis using a Beckman Coulter Cytoflex S flow cytometer (CA, USA) and FlowJo software (Tree Star, Inc., Ashland, OR, USA). Live Thy1.2+/CD4+ and Thy1.2+/CD8+ cells were assessed for CFSE dilution and CD25 expression. […] Statistical significance was determined using paired t tests.

[3] = system: BMDC/T-cell cocultures; test: T cell cytokine release in BMDC/T-cell cocultures; type: cell-based, C57BL/6 mouse; conditions: 10 μM; for levels of IL-6 and TNF-α secreted by CD4+ T cells: 72 h coculture
Description: as §1
Following 72 h of coincubation with BMDCs (pretreated with desmuramylpeptides [10 μM] and washed), supernatants from CD4^+ and CD8^+ T cells were harvested as previously described. […] Standard curves were constructed using recombinant cytokines provided in the kit. Data analysis was conducted using FlowJo (Tree Star, Inc., Ashland, OR, USA) and Prism (GraphPad, San Diego, CA, USA) software. Each experiment was performed in duplicate and replicated in two independent biological runs.

[4] = system: CD4+ T cells cocultured with BMDCs; test: BMDC antigen presentation to ovalbumin-specific CD4+ T cells (OT II); type: cell-based, C57BL/6 mouse; conditions: BMDCs pretreated 10 μM + ovalbumin 50 μg/mL 18 h, coculture 72 h; OVA-treated cells 63.8%
Description: as §1
CD4^+ and CD8^+ T cells were isolated from splenocytes of OT II and OT I transgenic mice using CD4^+ and CD8^+ T cell isolation kits (Miltenyi Biotec, Germany) following the manufacturer’s instructions. The purified T cells were labeled with CFSE (Invitrogen, Carlsbad, CA, USA) and subsequently washed. Next, 5 × 10^4 T cells were combined with 1 × 10^4 BMDCs/well (pretreated with desmuramylpeptides at 10 μM and 50 μg/mL ovalbumin [Invivogen, San Diego, CA, USA] for 18 h and then washed). Following a 72-h incubation period at 37 °C with 5% CO2, supernatants were harvested and stored at −80 °C for cytokine analysis. The cells were then stained with Fixable viability dye eFluor 780 (eBioscience, Thermo Fisher Scientific, MA, USA), anti-Thy1.2-PE-Cy7 antibodies (Biolegend, San Diego, CA, USA), anti-CD8-eFluor450 antibodies (eBioscience), anti-CD4-eFluor450 antibodies (eBioscience), and anti-CD25-APC antibodies (Biolegend) before analysis using a Beckman Coulter Cytoflex S flow cytometer (CA, USA) and FlowJo software (Tree Star, Inc., Ashland, OR, USA). Live Thy1.2+/CD4+ and Thy1.2+/CD8+ cells were assessed for CFSE dilution and CD25 expression. Each experiment was performed in duplicate and repeated in two independent biological replicates. Statistical significance was determined using paired t tests.

[5] = system: PBMCs; test: Direct cytotoxic effect of compounds on PBMCs (Sytox blue); type: cell-based; conditions: Table S2; for Percent of dead PBMCs, + LPS: 10 μM + LPS 1 μg/mL; for Percent of dead PBMCs: alone: compounds 10 μM, LPS 1 μg/mL, IL-2 200 U/mL
[6] = Kinetic solubility (method of Hoelke et al.); type: physicochemical
Text: Park et al. have shown that the degree of saturation of fatty acids exerts a profound impact on permeability of fatty acylated peptides—a higher degree of unsaturation results in higher permeability.[43] PUFA can also induce significant biophysical perturbations upon incorporation into membrane phospholipids.[67],[68] […] Given that the hydrophobicity of fatty acyl residues in general reduces as the number of unsaturated sites increases,[69],[70] we decided to ascertain how such structural modifications translate to the kinetic solubility of the molecule as a whole. […] The acylation with PUFA thus provides an elegant, albeit counterintuitive, approach, by which permeability of the molecule as a whole as well as its capacity for liposomal encapsulation can be enhanced without completely abolishing its aqueous solubility.

[7] = NF-κB transcriptional activity (SEAP), read-out: EC50 (nM), NOD2 agonistic activity

What does the source list for CCCC(=O)Oc1ccc(/C=C/C(=O)NCC(=O)N[C@H](C(=O)N[C@H](CCC(=O)OCC)C(=O)OCC)C(C)C)cc1OC [Compound 3, Diethyl ((E)-3-(4-(Butyryloxy)-3-methoxyphenyl)acryloyl)glycyl-L-valyl-D-glutamate]?
enhancement in potency compared to 1 ([1]; EC50 ratio versus unsubstituted counterpart 1): ~17 fold; EC50 [1, 7]: 4.6 ± 1.6 nM; fraction of activated and proliferating CD8+ T-cells (CD25+, CFSE low) [2]: 29.3%; levels of IL-6 and TNF-α secreted by CD4+ T cells [3]: slightly increased; stimulating IL-2 and IL-9 production ([3]; CD4+ T cell coculture, 72 h): most notable; fraction of activated and proliferating CD4+ T-cells (CD25+, CFSE low) [4]: 77.9%; Percent of dead PBMCs, + LPS [5]: 3.34% ± 0.35%; Percent of dead PBMCs [5]: 1.14% ± 0.23%; solubility kinetic [6]: 178 µM (≈ 108 µg/mL)

Which EC50 [1, 7] does the source give for CC/C=C\C/C=C\C/C=C\C/C=C\C/C=C\CCCC(=O)Oc1ccc(/C=C/C(=O)NCC(=O)N[C@H](C(=O)N[C@H](CCC(=O)OCC)C(=O)OCC)C(C)C)cc1OC [Compound 23, Diethyl ((E)-3-(4-(((5Z,8Z,11Z,14Z,17Z)-Icosa-5,8,11,14,17-pentaenoyl)oxy)-3-methoxyphenyl)acryloyl)glycyl-L-valyl-D-glutamate] here?
The EC50 was 105 ± 22.8 nM.

What about the “fraction of activated and proliferating CD8+ T-cells (CD25+, CFSE low)” value [2] of the same molecule?
Its value is 34.1%.

And the “levels of IL-6 and TNF-α secreted by CD4+ T cells” value [3]?
Its value is “slightly increased”.

What about the “production of the Th9-associated cytokine IL-9” value ([3]; CD4+ T cell coculture, 72 h) of the same molecule?
Its value is “augmented”.

What about the “stimulating IL-2 and IL-9 production” value ([3]; CD4+ T cell coculture, 72 h) of the same molecule?
Its value is “most notable”.

What about the “fraction of activated and proliferating CD4+ T-cells (CD25+, CFSE low)” value [4] of the same molecule?
Its value is 79.7%.

What about the “Percent of dead PBMCs, + LPS” value [5] of the same molecule?
The value was 11.4% ± 2.64%.

What about the “Percent of dead PBMCs” value [5] of the same molecule?
The value was 1.28% ± 0.06%.

And the solubility kinetic [6]?
Its solubility kinetic is 105 µM (≈ 86.1 µg/mL).

And the “diminished solubility compared to parent compound 1” value ([6]; kinetic solubility)?
Its value is 4 factor.

With CCOC(=O)CC[C@@H](NC(=O)[C@@H](NC(=O)CNC(=O)/C=C/c1ccc(OC(=O)CO[C@H]2CC[C@@]3(C)C(=CC[C@H]4[C@@H]5CC[C@H]([C@H](C)CCCC(C)C)[C@@]5(C)CC[C@@H]43)C2)c(OC)c1)C(C)C)C(=O)OCC [Compound 26, Diethyl ((E)-3-(4-(2-(((8S,9S,10R,13R,14S,17R)-10,13-Dimethyl-17-((R)-6-methylheptan-2-yl)-2,3,4,7,8,9,10,11,12,13,14,15,16,17-tetradecahydro-1H-cyclopenta[a]phenanthren-3-yl)oxy)acetoxy)-3-methoxyphenyl)acryloyl)glycyl-L-valyl-D-glutamate] as the molecule, how does the EC50 [1, 7] read?
The EC50 was 12200 nM.

What about the EC50 ([1]; read-out: EC50, NOD2 agonistic activity (text)) of the same molecule?
The EC50 was 12200 nM.

What about the “fraction of activated and proliferating CD4+ T-cells (CD25+, CFSE low)” value [4] of the same molecule?
Its value is 62.7%.

And the “Percent of dead PBMCs, + LPS” value [5]?
Its value is 9.93% ± 0.49%.

What about the “Percent of dead PBMCs” value [5] of the same molecule?
The value was 1.08% ± 0.10%.
